We go through five compounds from patent US20060211751A1, “Zolmitriptan crystal forms” (priority 2004, published 2006).

Format in all cases: physicochemical
Data set [1] can be described thus: Transformation of zolmitriptan crystal forms by heating in a conventional oven, form determined by XRD. The note with it: for Crystal form after heating: about 1.5 to 2 hours, conventional oven, XRD. The method, then: Zolmitriptan (0.5 g) crystalline forms were heated in a conventional oven for a period of about 1.5 to 2 hours at different temperatures. The crystal form of the samples was determined by XRD before and after heating.

Data set [2] in a line: Transformation by pressing (crystal form before and after pressing). The settings on record: for Crystal Form after pressing: 100 mg pressed with approximately 1300 psi during 2 minutes.
Data set [3] can be described thus: Transformation by slurry in other solvents (n-hexane, toluene, water) and drying, form determined by XRD. The text has this:
Similarly to example 6 Zolmitriptan samples were slurried from other solvents or solvent systems after dissolution and precipitation from a specific solvent.

The nature of data set [4]: Polymorphic stability when maintained at room temperature.
Where [5] appears, read: Toluene, dried 63 °C under reduced pressure.
[6] abbreviates: Water, dried 63 °C under reduced pressure.
Where [7] appears, read: immersed in 10 v/w Toluene, filtered, sucked ½ hour on Buchner.
Setting [8] is: immersed in 10 v/w Water, filtered, sucked ½ hour on Buchner.
Where [9] appears, read: immersed in 10 v/w n-Hexane, filtered, sucked ½ hour on Buchner.
The mark [10] stands for this setting: n-Hexane, dried 63 °C under reduced pressure.

Take `CN(C)CCc1c[nH]c2ccc(C[C@H]3COC(=O)N3)cc12` [Amorphous form]: the “stability upon heating (conversion to Form A)” value in data set [1] (heated at about 60 °C to about 110 °C for about 2 hours) is listed as “does not convert to Form A”. Besides, the “Crystal form after heating” value in data set [1] (heating temp. 60 °C), in data set [1] (heating temp. 100 °C) and in data set [1] (heating temp. 110 °C) was “Amorph” each time. Besides, in data set [2], the “Crystal Form after pressing” value is on record as “Amorphous Form”. Also, the “transformation to other crystal form on pressing” value (from here on “transformation”) in data set [2] was “not transform to other crystal form”.
On to `CN(C)CCc1c[nH]c2ccc(C[C@H]3COC(=O)N3)cc12` [Form L], for which the “Crystal form after heating” value in data set [1] (heating temp. 90 °C) is “A +”. Moreover, in data set [2], the “Crystal Form after pressing” value was “Form L” and the “transformation” value is reported as “not transform to other crystal form”.
With `CN(C)CCc1c[nH]c2ccc(C[C@H]3COC(=O)N3)cc12` [Form N], the “XRD sample (form after treatment)” value in data set [3] (setting [5]) is given as “Form A”; in data set [3] (setting [6]) it was “Form A”; in data set [3] (setting [7]), “Form K”; in data set [3] (setting [8]), “Form A”; in data set [3] (setting [9]) it was “Form D”; in data set [3] (setting [10]), “Form A”. In addition, the “Crystal form after heating” value in data set [1] (heating temp. 60 °C) is recorded as “N + A”. In addition, the “Crystal Form after pressing” value in data set [2] was “Form N”. Also, in data set [2], the “transformation” value is “not transform to other crystal form”.
Regarding `CN(C)CCc1c[nH]c2ccc(C[C@H]3COC(=O)N3)cc12` [Form Q], in data set [1] (heating temp. 60 °C), the “Crystal form after heating” value is “A +”.
`CN(C)CCc1c[nH]c2ccc(C[C@H]3COC(=O)N3)cc12` [Form S]: the “polymorphic stability (conversion to Form A)” value in data set [4] is recorded as “do not convert to Form A”. Besides, the “XRD sample (form after treatment)” value in data set [3] (setting [5]) is recorded as “Form A + ˜10% K”; in data set [3] (setting [6]) it was “Form A”; in data set [3] (setting [7]) it was “Form K”; in data set [3] (setting [8]), “Form A + ˜10% D”; in data set [3] (setting [9]), “Form D”; in data set [3] (setting [10]), “Form A + ˜20% D”. For the same compound, the “Crystal Form after pressing” value in data set [2] is given as “Form S”. Besides, in data set [2], the “transformation” value is listed as “not transform to other crystal form”.
